In the Kinase Knowledgebase extract (Sharma et al. 2016):

Assays:
PIK3CD (Human) = PIK3CD (Human) (UniProt O00329); assay: Enzyme Assay
PIK3CG (human) = PIK3CG (human) (UniProt P48736); assay: Enzyme Assay
PIK3CA (human) = PIK3CA (human) (UniProt P42336); assay: Inhibition of PIK3CA Kinase Activity
PIK3CB (Human) = PIK3CB (Human) (UniProt P42338); assay: Inhibition of PIK3CB Kinase Activity
PIK3CB (Human), sequence (P42338 whole entry, looked up): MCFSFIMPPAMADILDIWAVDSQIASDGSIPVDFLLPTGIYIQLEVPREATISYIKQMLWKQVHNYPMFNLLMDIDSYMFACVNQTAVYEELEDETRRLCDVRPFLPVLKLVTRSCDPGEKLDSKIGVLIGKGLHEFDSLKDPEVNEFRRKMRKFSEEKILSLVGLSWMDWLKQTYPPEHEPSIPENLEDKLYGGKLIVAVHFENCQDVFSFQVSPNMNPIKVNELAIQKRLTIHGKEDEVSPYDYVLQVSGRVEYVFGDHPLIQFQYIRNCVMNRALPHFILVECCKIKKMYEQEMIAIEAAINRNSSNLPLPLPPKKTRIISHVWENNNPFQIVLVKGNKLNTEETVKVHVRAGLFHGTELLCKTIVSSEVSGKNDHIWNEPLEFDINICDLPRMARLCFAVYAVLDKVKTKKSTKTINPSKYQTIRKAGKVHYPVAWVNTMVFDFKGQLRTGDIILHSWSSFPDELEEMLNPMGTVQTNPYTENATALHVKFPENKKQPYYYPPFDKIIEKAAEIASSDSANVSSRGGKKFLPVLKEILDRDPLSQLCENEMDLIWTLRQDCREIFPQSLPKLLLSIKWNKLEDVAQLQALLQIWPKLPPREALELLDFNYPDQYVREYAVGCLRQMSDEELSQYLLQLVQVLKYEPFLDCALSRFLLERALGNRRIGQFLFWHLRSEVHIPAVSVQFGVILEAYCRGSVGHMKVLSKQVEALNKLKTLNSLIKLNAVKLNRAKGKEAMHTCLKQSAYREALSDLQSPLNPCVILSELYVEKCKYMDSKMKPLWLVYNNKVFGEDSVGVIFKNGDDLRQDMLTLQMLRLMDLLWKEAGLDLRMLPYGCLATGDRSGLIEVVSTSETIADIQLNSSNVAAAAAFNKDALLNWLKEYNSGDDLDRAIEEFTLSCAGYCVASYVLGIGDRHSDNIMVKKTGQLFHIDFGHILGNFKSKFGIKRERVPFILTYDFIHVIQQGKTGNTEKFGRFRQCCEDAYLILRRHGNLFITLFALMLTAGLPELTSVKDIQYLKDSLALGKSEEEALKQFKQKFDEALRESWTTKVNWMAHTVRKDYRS

PIK3CD (Human), sequence (O00329 whole entry, looked up): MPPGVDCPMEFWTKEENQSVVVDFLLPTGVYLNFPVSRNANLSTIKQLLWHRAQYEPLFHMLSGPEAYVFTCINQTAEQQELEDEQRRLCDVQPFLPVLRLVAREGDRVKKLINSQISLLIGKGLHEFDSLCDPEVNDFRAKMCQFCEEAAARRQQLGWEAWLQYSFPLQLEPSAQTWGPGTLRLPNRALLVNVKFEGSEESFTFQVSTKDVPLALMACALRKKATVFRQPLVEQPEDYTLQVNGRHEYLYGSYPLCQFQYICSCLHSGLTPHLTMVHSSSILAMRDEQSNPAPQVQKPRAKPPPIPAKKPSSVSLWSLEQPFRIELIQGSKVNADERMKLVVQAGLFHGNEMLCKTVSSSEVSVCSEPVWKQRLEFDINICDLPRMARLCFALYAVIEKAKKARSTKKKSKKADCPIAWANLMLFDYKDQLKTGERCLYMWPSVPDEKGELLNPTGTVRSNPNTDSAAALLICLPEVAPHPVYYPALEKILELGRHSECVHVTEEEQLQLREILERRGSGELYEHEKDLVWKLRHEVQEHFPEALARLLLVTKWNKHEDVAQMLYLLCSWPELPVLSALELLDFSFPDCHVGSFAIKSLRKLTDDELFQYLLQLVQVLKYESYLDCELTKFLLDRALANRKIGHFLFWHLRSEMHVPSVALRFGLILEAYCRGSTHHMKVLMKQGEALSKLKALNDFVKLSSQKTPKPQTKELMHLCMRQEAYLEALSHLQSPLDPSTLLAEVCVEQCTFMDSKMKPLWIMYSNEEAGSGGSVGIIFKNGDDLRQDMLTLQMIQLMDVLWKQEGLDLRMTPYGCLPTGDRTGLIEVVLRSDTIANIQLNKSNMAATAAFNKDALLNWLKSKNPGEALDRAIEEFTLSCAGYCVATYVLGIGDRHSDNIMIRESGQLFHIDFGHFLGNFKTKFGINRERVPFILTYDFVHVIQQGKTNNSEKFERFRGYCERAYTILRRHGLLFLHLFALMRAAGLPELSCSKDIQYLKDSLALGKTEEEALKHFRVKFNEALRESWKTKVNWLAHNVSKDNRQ
PIK3CG (human), sequence (P48736 whole entry, looked up): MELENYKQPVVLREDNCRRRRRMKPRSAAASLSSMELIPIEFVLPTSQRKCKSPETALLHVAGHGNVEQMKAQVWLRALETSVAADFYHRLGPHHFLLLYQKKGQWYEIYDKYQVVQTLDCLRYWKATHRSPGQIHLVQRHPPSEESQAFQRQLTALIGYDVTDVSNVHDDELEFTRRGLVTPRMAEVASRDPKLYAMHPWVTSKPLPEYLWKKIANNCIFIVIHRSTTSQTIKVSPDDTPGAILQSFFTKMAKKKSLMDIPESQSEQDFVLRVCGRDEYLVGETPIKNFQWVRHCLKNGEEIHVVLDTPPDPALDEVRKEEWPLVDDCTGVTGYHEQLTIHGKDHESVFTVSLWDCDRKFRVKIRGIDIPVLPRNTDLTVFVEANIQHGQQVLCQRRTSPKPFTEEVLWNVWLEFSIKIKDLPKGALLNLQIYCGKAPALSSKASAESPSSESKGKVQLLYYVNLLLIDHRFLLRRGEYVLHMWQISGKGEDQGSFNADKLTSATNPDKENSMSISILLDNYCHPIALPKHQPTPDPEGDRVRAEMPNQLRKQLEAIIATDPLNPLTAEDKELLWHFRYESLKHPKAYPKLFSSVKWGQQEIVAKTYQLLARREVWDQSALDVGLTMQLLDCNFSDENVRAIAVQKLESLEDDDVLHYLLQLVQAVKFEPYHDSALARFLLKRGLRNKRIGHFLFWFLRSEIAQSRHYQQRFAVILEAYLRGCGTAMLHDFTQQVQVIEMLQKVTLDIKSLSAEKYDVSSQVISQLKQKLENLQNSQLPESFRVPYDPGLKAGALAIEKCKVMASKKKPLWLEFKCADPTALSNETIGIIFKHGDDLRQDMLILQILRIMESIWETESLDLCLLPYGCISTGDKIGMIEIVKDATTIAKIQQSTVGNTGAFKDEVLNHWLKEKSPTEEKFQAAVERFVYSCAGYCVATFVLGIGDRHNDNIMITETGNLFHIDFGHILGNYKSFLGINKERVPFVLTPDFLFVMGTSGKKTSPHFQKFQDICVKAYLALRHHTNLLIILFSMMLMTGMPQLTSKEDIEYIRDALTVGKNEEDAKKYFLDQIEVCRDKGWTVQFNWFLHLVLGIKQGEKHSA
PIK3CA (human), sequence (P42336 whole entry, looked up): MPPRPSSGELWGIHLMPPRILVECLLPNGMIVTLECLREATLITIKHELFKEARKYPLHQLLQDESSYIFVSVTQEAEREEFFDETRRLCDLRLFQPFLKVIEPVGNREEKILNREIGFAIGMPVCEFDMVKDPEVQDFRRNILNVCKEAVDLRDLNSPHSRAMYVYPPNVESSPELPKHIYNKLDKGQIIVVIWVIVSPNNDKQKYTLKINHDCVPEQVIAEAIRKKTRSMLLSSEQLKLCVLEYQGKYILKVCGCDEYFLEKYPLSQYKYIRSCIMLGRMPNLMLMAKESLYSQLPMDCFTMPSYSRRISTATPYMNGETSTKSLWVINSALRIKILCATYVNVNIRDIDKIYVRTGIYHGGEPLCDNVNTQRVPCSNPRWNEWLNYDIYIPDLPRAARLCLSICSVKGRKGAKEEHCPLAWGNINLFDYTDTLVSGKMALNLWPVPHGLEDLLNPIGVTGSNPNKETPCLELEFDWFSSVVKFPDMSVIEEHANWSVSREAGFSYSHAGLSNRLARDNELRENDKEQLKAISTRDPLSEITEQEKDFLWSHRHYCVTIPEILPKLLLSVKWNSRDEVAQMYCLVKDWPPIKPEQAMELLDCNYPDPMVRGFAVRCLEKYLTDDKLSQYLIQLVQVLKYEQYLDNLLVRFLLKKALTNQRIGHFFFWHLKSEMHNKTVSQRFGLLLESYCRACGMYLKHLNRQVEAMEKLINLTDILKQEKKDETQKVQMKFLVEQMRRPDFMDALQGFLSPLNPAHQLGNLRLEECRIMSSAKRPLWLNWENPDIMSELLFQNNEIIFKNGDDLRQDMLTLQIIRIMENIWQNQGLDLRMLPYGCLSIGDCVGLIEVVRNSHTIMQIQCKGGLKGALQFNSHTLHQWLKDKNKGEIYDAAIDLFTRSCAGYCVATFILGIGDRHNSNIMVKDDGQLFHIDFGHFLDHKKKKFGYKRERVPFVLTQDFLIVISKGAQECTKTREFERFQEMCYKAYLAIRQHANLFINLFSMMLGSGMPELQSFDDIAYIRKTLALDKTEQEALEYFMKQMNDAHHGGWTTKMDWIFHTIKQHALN

| SMILES | IC50 (PIK3CD (Human)) [nM] | IC50 (PIK3CG (human)) [nM] | IC50 (PIK3CA (human)) [nM] | IC50 (PIK3CB (Human)) [nM] |
| --- | --- | --- | --- | --- |
| CNC(=O)Nc1nc2ccc(-c3cn(C(C)C)c4ncnc(N)c34)cc2s1 | ≤ 50 | ≤ 50 | ≤ 50 | ≤ 50 |
| CC(C)n1nc(-c2cc3cc(O)cc(F)c3[nH]2)c2c(N)ncnc21 | 50 to 100 | 100 to 500 | – | – |
| CC(=O)Nc1nc2ccc(-c3nn(C4CCCC4)c4ncnc(N)c34)cc2s1 | ≤ 50 | ≤ 50 | ≤ 50 | – |
| CCC(=O)Nc1nc2ccc(-c3nn(C(C)C)c4ncnc(N)c34)cc2s1 | – | – | 100 to 500 | – |
| CC(=O)Nc1nc2ccc(-c3nn(C4CCOCC4)c4ncnc(N)c34)cc2s1 | ≤ 50 | ≤ 50 | 100 to 500 | – |
| CNC(=O)Nc1nc2ccc(-c3cn(C4CCN(C(C)=O)CC4)c4ncnc(N)c34)cc2s1 | ≤ 50 | ≤ 50 | ≤ 50 | 50 to 100 |
| CC(=O)Nc1nc2ccc(-c3nn(C4CCC4)c4ncnc(N)c34)cc2s1 | 50 to 100 | ≤ 50 | 50 to 100 | – |
| CC(=O)Nc1nc2ccc(-c3nn(C)c4ncnc(N)c34)cc2s1 | – | – | 500 to 1000 | – |
| CNC(=O)Nc1nc2ccc(-c3cn(C4CCOCC4)c4ncnc(N)c34)cc2s1 | ≤ 50 | ≤ 50 | ≤ 50 | ≤ 50 |
| CC(C)n1nc(-c2cc3ccc(O)cc3[nH]2)c2c(N)ncnc21 | 100 to 500 | 100 to 500 | 100 to 500 | – |
| CC(C)n1nc(-c2cc3cccc(O)c3[nH]2)c2c(N)ncnc21 | 100 to 500 | 100 to 500 | – | – |
| CCn1nc(-c2ccc3nc(NC(C)=O)sc3c2)c2c(N)ncnc21 | ≤ 50 | ≤ 50 | 50 to 100 | – |
| CC(C)n1nc(-c2cc3cc(O)cc(Cl)c3[nH]2)c2c(N)ncnc21 | 25 to 50 | 25 to 50 | – | – |

Further lines, results first:

| IC50 (PIK3CD (Human)) [nM] | IC50 (PIK3CG (human)) [nM] | IC50 (PIK3CA (human)) [nM] | IC50 (PIK3CB (Human)) [nM] | SMILES |
| --- | --- | --- | --- | --- |
| 100 to 500 | ≤ 50 | 50 to 100 | – | CNc1nc2ccc(-c3nn(C(C)C)c4ncnc(N)c34)cc2s1 |
| ≤ 50 | ≤ 50 | 100 to 500 | – | CC(=O)Nc1nc2ccc(-c3nn(C(C)C)c4ncnc(N)c34)cc2s1 |
| – | – | 500 to 1000 | – | CC(C)n1nc(-c2ccc3nc(NC(=O)C4CC4)sc3c2)c2c(N)ncnc21 |
| 500 to 1000 | 100 to 500 | 100 to 500 | – | CCNc1nc2ccc(-c3nn(C(C)C)c4ncnc(N)c34)cc2s1 |
| 50 to 100 | ≤ 50 | 100 to 500 | – | CC(C)n1nc(-c2ccc3nc(N)sc3c2)c2c(N)ncnc21 |
| – | – | 500 to 1000 | – | CC(C)n1nc(-c2ccc3nc(NCCO)sc3c2)c2c(N)ncnc21 |
| ≤ 50 | ≤ 50 | ≤ 50 | – | CNC(=O)Nc1nc2ccc(-c3nn(C(C)C)c4ncnc(N)c34)cc2s1 |
